Laboratory results as given in US20250221981A1, “MAT2A INHIBITOR AND/OR TSG101 INHIBITOR FOR USE IN ANTIVIRAL THERAPY” (CAMBRIDGE ENTERPRISE LIMITED, priority 2022, published 2025).

Experiments:
BKPyV = BKPyV infection of RPTE/TERT1 cells, immunofluorescence count of LTAg / VP1 positive cells; format: cell-based, BK polyomavirus; details: 48 hpi; for early gene (LTAg) expression, LTAg positive cells as a proportion of DAPI-positive cells / late gene (VP1) expression, VP1 positive cells as a proportion of DAPI-positive cells: particularly at double proliferative IC50 (20 µM PF-9366, 514 nM AG-270), MOI 1
Method: (A) Effect of PF-9366 on viral early gene expression: Cells were infected with BKPyV (MOI 1) in media containing appropriate drug concentrations. At 1 hpi infectious media was removed, cells were washed and fresh media with appropriate drug concentrations was added. Cells were formaldehyde fixed at 48 hpi and stained for DAPI and LTAg expression and detected by fluorescence microscopy. The number of infected LTAg positive cells were recorded, normalized to cell number. n=3.
Effect of drug treatment on cellular replication and survival and viral early gene expression: Cells were infected with BKPyV (MOI 1) in media containing appropriate drug concentrations. At 1 hpi infectious media was removed, cells were washed and fresh media with appropriate drug concentrations was added. Cells were formaldehyde fixed at 48 hpi and stained for nuclear DAPI and LTAg expression, then detected by fluorescence microscopy. The number of cells per well were determined through DAPI analysis (i) Effect of drug treatment on viral early and late gene expression: The number of infected cells were determined by LTAg (early gene) and VP1 (late gene) expression (ii).
Treatment began 3 hours prior to infection and continued throughout infection. Cells were infected with BKPyV (MOI 1), at 1 hpi cells were washed with PBS and replenished with fresh drug treated media. At 48 hpi cells were fixed with 3% formaldehyde and stained for LTAg expression, and the nuclei counterstained with DAPI. The number of LTAg positive cells were counted and normalised to the total cell number in each condition, and the fold change in proportion of LTAg positive cells for each concentration of PF-9366 was normalised to untreated control.
To investigate whether MAT2A inhibition by a structurally different inhibitor to PF-9366 could cause similar effects, the effect of AG-270 on BKPyV infection was investigated. As above, drugs were used to treat cells from 3 hours prior to infection. Drug concentrations used were the IC50 value defined by inhibition of cell proliferation (proliferative IC50) or double the proliferative IC50, and DMSO was used as a control. Cells were infected with BKPyV (MOI 1), at 1 hpi cells were washed and fresh drug-containing media was added. At 48 hpi cells were fixed in 3% formaldehyde and stained for DAPI, viral early gene LTAg, and viral late gene VP1. The number of cells in each condition were counted and normalised to DMSO treated cells (FIG. 4A(i)). The number of cells represents both cell viability, and the ability of the drug in question to inhibit cellular proliferation.
For BKPyV infections, RPTE/TERT1, RPTE/TERT1-Cas9 or RPTE/TERT1 MAT2A KO cells were infected with BKPyV at either a multiplicity of infection (MOI) of 5 for growth curves or an MOI of 3 or 1 for all other experiments, diluted in appropriate medium. At 1 hour post infection (hpi) medium was removed, cells were washed twice with phosphate-buffered saline (PBS), and fresh medium was added with or without inhibitors. At 24, 48, 72 or 96 hpi cells were either harvested for western blot, RT qPCR or virus titre by FFU assay, or fixed for immunofluorescence analysis.
For fluorescence intensity analysis, 20 fields of view were captured for each experiment. All quantification analyses were carried out using ImageJ and an optimised robust automated detection pipeline Schindelin et al. (Nat Methods. 2012 Jun. 28; 9 (7): 676-82). […] LTAg-staining patterns across each field of view were measured by quantifying the fluorescence intensity using the Mean Grey Value (MGV) function of ImageJ and averaging the results for each experimental condition. Individual cell fluorescence intensity was determined by drawing polygon selections around each LTAg-positive nuclei in ImageJ and measuring the nuclear area, MGV and integrated density, then doing the same for background areas close to each nuclei measured. […]

cell proliferation = details: value used to set treatment concentration; read-out: proliferative IC50; cited from earlier work
RPTE/hTERT cells = test: Cell viability assay, CellTiter-Blue fluorescence
Method: RPTE/hTERT cells were treated with MAT2A inhibitors at increasing concentrations for 48 hrs and assayed for cell viability using CellTiter-Blue fluorescence. Experiments were conducted using biological triplicates.
Experiment was conducted using biological triplicates.
Cell viability was assessed using the Cell-Titer-Blue assay (Promega), following manufacturers guidelines.

Zika American Strain = test: Western blot of Zika E protein in VERO E6 cells, American strain; format: cell-based, Zika virus; details: 20 μM, MOI >10, 48 hrs
Method: (§1) (B) Zika: VERO E6 cells were plated. The following day 20 μM PF-9366 or DMSO control was added to media. After 3 hrs cells were infected with Zika African strain, American Strain or Mock infected (MOI >10). After 48 hrs cells were harvested by scraping, pelleted and lysed into lysis buffer. Western blot was then conducted on the lysed cells. Protein embedded SDS-PAGE gels were transferred to membranes overnight and then probed for Zika E protein and GAPDH as a control.
(§2) For Flavivirus infections VERO E6 cells were infected with either African (Afn) or American (Amer) Zika at a multiplicity of infection (MOI) greater than 10, diluted in appropriate medium. At 1 hour post infection (hpi) medium was removed, cells were washed twice with phosphate-buffered saline (PBS), and fresh medium was added. At 48 hpi cells were either harvested for western blot.
(§3) Cell lysate preparation and western blots were performed as described in Ren et al. (J Gen Virol. 2012 February; 93 (Pt 2): 319-329). Primary antibodies used were ab53977 (VP1), PAb416 (LTAg), sc-166452 (MAT2A/1A), ab110226 (VP16), sc-53070 (ICP0), anti-Zika E Protein, and either anti-GAPDH or anti-tubulin as a loading control, followed by IRDye 680LT-, or IRDye 800CW-conjugated secondary antibodies. Imaging was performed using the LI-COR Odyssey Infrared Imaging system. Quantification was performed using LI-COR Image Studio Software. […]

Zika African strain = test: Western blot of Zika E protein in VERO E6 cells, African strain; format: cell-based, Zika virus; details: 20 μM, MOI >10, 48 hrs
Method: as §1, §2, §3

Structure (SMILES) | early gene (LTAg) expression, LTAg positive cells as a proportion of DAPI-positive cells (BKPyV) | late gene (VP1) expression, VP1 positive cells as a proportion of DAPI-positive cells (BKPyV) | IC50 (cell proliferation) [µM] | effect on cell viability and metabolism (RPTE/hTERT cells; MAT2A inhibitor (AG270 1 μM, AZ33 125 nM) in combination with Ilaprazole (5 μM), until 144 hr) | effect on cell viability and metabolism (RPTE/hTERT cells; at concentrations inhibiting BKPyV replication, 48 hrs) | reduction in LTAg positive cells (BKPyV; 40 μM, BKPyV MOI 1, normalised to untreated control) [%] | number of LTAg positive cells (BKPyV; PF-9366 concentrations of 5 μM and above, BKPyV MOI 1, treatment from 3 h prior to infection) | viral protein expression (Zika E protein), American strain (Zika American Strain) | viral protein expression (Zika E protein), African strain (Zika African strain)
COc1ccc(-c2c(Nc3ccccn3)[nH]c3c(C4=CCCCC4)c(-c4ccccc4)nn3c2=O)cc1 [AG-270] | reduced | reduced | 0.257 | little effect | little effect |  |  |  | 
CN(C)CCc1nnc2cc(-c3ccccc3)c3cc(Cl)ccc3n12 [PF-9366] | reduced | reduced | 10 |  |  | ~95 | significantly reduced | reduction | reduction
